# Source: patent EP0385712B1, “A peptide for use in the manufacture of a composition for prevention or treatment of a condition susceptible to treatment with a platelet aggregation inhibition agent” (ASAHI KASEI KOGYO KABUSHIKI KAISHA, priority 1989, dated 1994)
# Positions of bridges follow the written chain, without caps; N, C: chain ends. Residues, ends and D or L forms follow the SMILES beside them.
# Test system: rat, Wister strain
# Assay: Acute toxicity in rat, intravenous
# Type: in vivo
# Conditions: body weight 80 - 90 g, 80 µg/kg intravenously in the tail, solution in 0.1 M aqueous sodium acetate containing 0.1 % bovine serum albumin
# Experimental: A solution of each of the following compounds in 0.1 M aqueous sodium acetate containing 0.1 % bovine serum albumin is administered into a rat, Wister strain, body weight 80 - 90 g, 80 µg/kg, intraveneously in the tail.
row,Compound,Acute toxicity (deaths)
1,CC(C)C[C@H](NC(=O)[C@H](CCCNC(=N)N)NC(=O)[C@H](Cc1c[nH]cn1)NC(=O)[C@@H](NC(=O)[C@@H](NC(=O)[C@@H]1CSSC[C@H](NC(=O)[C@H](C)N)C(=O)N[C@@H](CC(=O)O)C(=O)N[C@@H]([C@@H](C)O)C(=O)N[C@@H](C)C(=O)N[C@@H]([C@@H](C)O)C(=O)N1)C(C)C)[C@@H](C)O)C(=O)N[C@@H](C)C(=O)N[C@@H](CC(=O)O)C(=O)N[C@@H](CC(C)C)C(=O)N[C@@H](CC(C)C)C(=O)N[C@@H](CO)C(=O)N[C@@H](CCCNC(=N)N)C(=O)N[C@@H](CO)C(=O)NCC(=O)NCC(=O)N[C@H](C(=O)N[C@H](C(=O)N[C@@H](CCCCN)C(=O)N[C@@H](CC(N)=O)C(=O)N[C@@H](CC(N)=O)C(=O)N[C@@H](Cc1ccccc1)C(=O)N[C@H](C(=O)N1CCC[C@H]1C(=O)N[C@H](C(=O)N[C@@H](CC(N)=O)C(=O)N[C@H](C(=O)NCC(=O)N[C@@H](CO)C(=O)N[C@@H](CCCCN)C(=O)N[C@@H](C)C(=O)N[C@@H](Cc1ccccc1)C(N)=O)C(C)C)[C@@H](C)O)C(C)C)C(C)C)C(C)C [[Asp¹⁴ ] -h -α-CGRP] (H-ACDTATCVTHRLADLLSRSGGVVKNNFVPTNVGSKAF-NH2; disulfide 2-7),No deaths were observed
2,"CC(C)C[C@H](NC(=O)[C@H](CCCNC(=N)N)NC(=O)[C@H](Cc1c[nH]cn1)NC(=O)[C@@H](NC(=O)[C@@H](NC(=O)[C@@H]1CSSC[C@H](NC(=O)[C@H](C)N)C(=O)N[C@@H](CC(N)=O)C(=O)N[C@@H]([C@@H](C)O)C(=O)N[C@@H](C)C(=O)N[C@@H]([C@@H](C)O)C(=O)N1)C(C)C)[C@@H](C)O)C(=O)N[C@@H](C)C(=O)N[C@@H](CCC(=O)O)C(=O)N[C@@H](CC(C)C)C(=O)N[C@@H](CC(C)C)C(=O)N[C@@H](CO)C(=O)N[C@@H](CCCNC(=N)N)C(=O)N[C@@H](CO)C(=O)NCC(=O)NCC(=O)N[C@H](C(=O)NCC(=O)N[C@@H](CCCCN)C(=O)N[C@@H](CC(N)=O)C(=O)N[C@@H](CC(N)=O)C(=O)N[C@@H](Cc1ccccc1)C(=O)N[C@H](C(=O)N1CCC[C@H]1C(=O)N[C@H](C(=O)N[C@@H](CC(N)=O)C(=O)N[C@H](C(=O)NCC(=O)N[C@@H](CO)C(=O)N[C@@H](CCCCN)C(=O)N[C@@H](C)C(=O)N[C@@H](Cc1ccccc1)C(N)=O)C(C)C)[C@@H](C)O)C(C)C)C(C)C [[Asn³, Glu¹⁴, Gly²³] -h -α-CGRP] (H-ACNTATCVTHRLAELLSRSGGVGKNNFVPTNVGSKAF-NH2; disulfide 2-7)",No deaths were observed
3,"desalanyl-deamino- [Asn³, Asp¹⁴, Gly²³] -h -α-CGRP",No deaths were observed
4,r - α - CGRP,No deaths were observed
5,p - CGRP,No deaths were observed
6,"desalanyl-deamino- [Asn³, Asp¹⁴, Phe¹⁵] -h -α-CGRP",No deaths were observed
7,"CC(C)C[C@H](NC(=O)[C@H](CCCNC(=N)N)NC(=O)[C@H](Cc1c[nH]cn1)NC(=O)[C@@H](NC(=O)[C@@H](NC(=O)[C@@H]1CSSC[C@H](NC(=O)[C@H](C)N)C(=O)N[C@@H](CC(N)=O)C(=O)N[C@@H]([C@@H](C)O)C(=O)N[C@@H](C)C(=O)N[C@@H]([C@@H](C)O)C(=O)N1)C(C)C)[C@@H](C)O)C(=O)N[C@@H](C)C(=O)N[C@@H](CC(=O)O)C(=O)N[C@@H](CC(C)C)C(=O)N[C@@H](CC(C)C)C(=O)N[C@@H](CO)C(=O)N[C@@H](CCCNC(=N)N)C(=O)N[C@@H](CO)C(=O)NCC(=O)NCC(=O)N[C@H](C(=O)NCC(=O)N[C@@H](CCCCN)C(=O)N[C@@H](CC(N)=O)C(=O)N[C@@H](CC(N)=O)C(=O)N[C@@H](Cc1ccccc1)C(=O)N[C@H](C(=O)N1CCC[C@H]1C(=O)N[C@H](C(=O)N[C@@H](CC(N)=O)C(=O)N[C@H](C(=O)NCC(=O)N[C@@H](CO)C(=O)N[C@@H](CCCCN)C(=O)N[C@@H](C)C(=O)N[C@@H](Cc1ccccc1)C(N)=O)C(C)C)[C@@H](C)O)C(C)C)C(C)C [[Asn³, Asp¹⁴, Gly²³] -h -α-CGRP] (H-ACNTATCVTHRLADLLSRSGGVGKNNFVPTNVGSKAF-NH2; disulfide 2-7)",No deaths were observed
8,"desalanyl- [Asu^2,7] -h - α-CGRP",No deaths were observed
9,c - CGRP,No deaths were observed
10,"CC(C)C[C@H](NC(=O)[C@H](CCCNC(=N)N)NC(=O)[C@H](Cc1c[nH]cn1)NC(=O)[C@@H](NC(=O)[C@@H](NC(=O)[C@@H]1CSSC[C@H](NC(=O)[C@H](C)N)C(=O)N[C@@H](CC(N)=O)C(=O)N[C@@H]([C@@H](C)O)C(=O)N[C@@H](C)C(=O)N[C@@H]([C@@H](C)O)C(=O)N1)C(C)C)[C@@H](C)O)C(=O)N[C@@H](C)C(=O)N[C@@H](CC(=O)O)C(=O)N[C@@H](Cc1ccccc1)C(=O)N[C@@H](CC(C)C)C(=O)N[C@@H](CO)C(=O)N[C@@H](CCCNC(=N)N)C(=O)N[C@@H](CO)C(=O)NCC(=O)NCC(=O)N[C@H](C(=O)N[C@H](C(=O)N[C@@H](CCCCN)C(=O)N[C@@H](CC(N)=O)C(=O)N[C@@H](CC(N)=O)C(=O)N[C@@H](Cc1ccccc1)C(=O)N[C@H](C(=O)N1CCC[C@H]1C(=O)N[C@H](C(=O)N[C@@H](CC(N)=O)C(=O)N[C@H](C(=O)NCC(=O)N[C@@H](CO)C(=O)N[C@@H](CCCCN)C(=O)N[C@@H](C)C(=O)N[C@@H](Cc1ccccc1)C(N)=O)C(C)C)[C@@H](C)O)C(C)C)C(C)C)C(C)C [[Asn³, Asp¹⁴, Phe¹⁵] -h -α-CGRP] (H-ACNTATCVTHRLADFLSRSGGVVKNNFVPTNVGSKAF-NH2; disulfide 2-7)",No deaths were observed
11,"desalanyl- [Asp^3, Asu^2,⁷)-c-CGRP",No deaths were observed
12,desalanyl-deamino- [Asp¹⁴ ] -h -α-CGRP,No deaths were observed
13,"CC(C)C[C@H](NC(=O)[C@H](CCCNC(=N)N)NC(=O)[C@H](Cc1c[nH]cn1)NC(=O)[C@@H](NC(=O)[C@@H](NC(=O)[C@@H]1CSSC[C@H](NC(=O)[C@H](C)N)C(=O)N[C@@H](CC(N)=O)C(=O)N[C@@H]([C@@H](C)O)C(=O)N[C@@H](C)C(=O)N[C@@H]([C@@H](C)O)C(=O)N1)C(C)C)[C@@H](C)O)C(=O)N[C@@H](C)C(=O)NCC(=O)N[C@@H](Cc1ccccc1)C(=O)N[C@@H](CC(C)C)C(=O)N[C@@H](CO)C(=O)N[C@@H](CCCNC(=N)N)C(=O)N[C@@H](CO)C(=O)NCC(=O)NCC(=O)N[C@H](C(=O)NCC(=O)N[C@@H](CCCCN)C(=O)N[C@@H](CC(N)=O)C(=O)N[C@@H](CC(N)=O)C(=O)N[C@@H](Cc1ccccc1)C(=O)N[C@H](C(=O)N1CCC[C@H]1C(=O)N[C@H](C(=O)N[C@@H](CC(N)=O)C(=O)N[C@H](C(=O)NCC(=O)N[C@@H](CO)C(=O)N[C@@H](CCCCN)C(=O)N[C@@H](C)C(=O)N[C@@H](Cc1ccccc1)C(N)=O)C(C)C)[C@@H](C)O)C(C)C)C(C)C [[Asn³, Phe¹⁵, Gly²³] -h -α-CGRP] (H-ACNTATCVTHRLAGFLSRSGGVGKNNFVPTNVGSKAF-NH2; disulfide 2-7)",No deaths were observed
14,"desalanyl-deamino- [Asn³, Glu¹⁴, Gly²³] -h -α-CGRP",No deaths were observed
15,CC(C)C[C@H](NC(=O)CNC(=O)[C@H](C)NC(=O)[C@H](CC(C)C)NC(=O)[C@H](CCCNC(=N)N)NC(=O)[C@H](Cc1cnc[nH]1)NC(=O)[C@@H](NC(=O)[C@@H](NC(=O)[C@@H]1CSSC[C@H](NC(=O)[C@H](C)N)C(=O)N[C@@H](CC(=O)O)C(=O)N[C@@H]([C@@H](C)O)C(=O)N[C@@H](C)C(=O)N[C@@H]([C@@H](C)O)C(=O)N1)C(C)C)[C@@H](C)O)C(=O)N[C@@H](CC(C)C)C(=O)N[C@@H](CO)C(=O)N[C@@H](CCCNC(=N)N)C(=O)N[C@@H](CO)C(=O)NCC(=O)NCC(=O)N[C@H](C(=O)N[C@H](C(=O)N[C@@H](CCCCN)C(=O)N[C@@H](CC(N)=O)C(=O)N[C@@H](CC(N)=O)C(=O)N[C@@H](Cc1ccccc1)C(=O)N[C@H](C(=O)N1CCC[C@H]1C(=O)N[C@H](C(=O)N[C@@H](CC(N)=O)C(=O)N[C@H](C(=O)NCC(=O)N[C@@H](CO)C(=O)N[C@@H](CCCCN)C(=O)N[C@@H](C)C(=O)N[C@@H](Cc1ccccc1)C(N)=O)C(C)C)[C@@H](C)O)C(C)C)C(C)C)C(C)C [h - α - CGRP],No deaths were observed
16,h - β- CGRP,No deaths were observed
17,"CC(C)C[C@H](NC(=O)[C@H](CCCNC(=N)N)NC(=O)[C@H](Cc1c[nH]cn1)NC(=O)[C@@H](NC(=O)[C@@H](NC(=O)[C@@H]1CSSC[C@H](NC(=O)[C@H](C)N)C(=O)N[C@@H](CC(N)=O)C(=O)N[C@@H]([C@@H](C)O)C(=O)N[C@@H](C)C(=O)N[C@@H]([C@@H](C)O)C(=O)N1)C(C)C)[C@@H](C)O)C(=O)N[C@@H](C)C(=O)N[C@@H](CCC(=O)O)C(=O)N[C@@H](Cc1ccccc1)C(=O)N[C@@H](CC(C)C)C(=O)N[C@@H](CO)C(=O)N[C@@H](CCCNC(=N)N)C(=O)N[C@@H](CO)C(=O)NCC(=O)NCC(=O)N[C@H](C(=O)N[C@H](C(=O)N[C@@H](CCCCN)C(=O)N[C@@H](CC(N)=O)C(=O)N[C@@H](CC(N)=O)C(=O)N[C@@H](Cc1ccccc1)C(=O)N[C@H](C(=O)N1CCC[C@H]1C(=O)N[C@H](C(=O)N[C@@H](CC(N)=O)C(=O)N[C@H](C(=O)NCC(=O)N[C@@H](CO)C(=O)N[C@@H](CCCCN)C(=O)N[C@@H](C)C(=O)N[C@@H](Cc1ccccc1)C(N)=O)C(C)C)[C@@H](C)O)C(C)C)C(C)C)C(C)C [[Asn³, Glu¹⁴, Phe¹⁵] -h -α-CGRP] (H-ACNTATCVTHRLAEFLSRSGGVVKNNFVPTNVGSKAF-NH2; disulfide 2-7)",No deaths were observed
18,"desalanyl- [Asu^2,7] -h -β-CGRP",No deaths were observed
19,r - β- CGRP,No deaths were observed
20,"desalanyl- [Asu^2,⁷] - c-CGRP",No deaths were observed
21,desalanyl-deamino-h-β-CGRP,No deaths were observed
22,desalanyl-deamino- [Glu¹⁴ ] -h -α-CGRP,No deaths were observed
